Data as given in patent US9126979B2, “Compounds for inhibiting the interaction of BCL2 with binding partners” (Novartis AG, priority 2011, dated 2015).
pIC50: −log10 of the molar value.

How the values were obtained:
[1] = molecular target: BCL-2 binding to biotinylated BAK peptide (Homo sapiens (Human), UniProt P10415); experiment: SPR (Biacore) solution inhibition assay, BCL-2 binding to BAK peptide surface; conditions: read-out: BCL2_SPR IC50 BAK
Description: (§1) The present method includes utility of a Surface plasmon resonance (SPR)-based biosensor (Biacore™′ GE Healthcare, Uppsala, Sweden) to characterize BCL-2 inhibitors.
(§2) Biacore™ utilizes the phenomenon of surface plasmon resonance (SPR) to detect and measure binding interactions. In a typical Biacore experiment, one of the interacting molecules (ligand) is immobilized on a flexible dextran matrix while the interacting partner (analyte) is allowed to flow across that surface. A binding interaction results in an increase in mass on the sensor surface and a corresponding direct change in the refractive index of the medium in the vicinity of the sensor surface. Changes in refractive index or signal are recorded in resonance units (R.U.) Signal changes due to association and dissociation of complexes are monitored in a non-invasive manner, continuously and in real-time, the results of which are reported in the form of a sensorgram.
(§3) The SPR assay is configured to examine solution inhibition of BCL-2 binding to peptide derivatized sensor surfaces to generate IC50 values as a measure of inhibitor potency.
(§4) Biacore™ A100 (GE Healthcare, Uppsala, Sweden) was used to conduct all experiments reported herein. Sensor surface preparation and all interaction analyses experiments were performed at 25° C. Reagents were purchased from GE Healthcare. Running buffer containing 10 mM Hepes, pH7.4, 150 mM sodium chloride, 1.25 mM Dithiothreitol, 3% Dimethyl sulfoxide and 0.05% polysorbate 20 were utilized throughout all analyses.
(§5) Biotinylated BAK, BAD and NOXA peptides were diluted to 10 nM in running buffer and captured onto a sensor surface pre-derivatized with streptavidin (sensor chip SA) to peptide surface densities in the range 50-100 R.U. Peptide captured surfaces were blocked with 50004 PEO2-Biotin.
(§6) Interaction analyses were performed by first equilibrating each sample within a 6 point three fold compound dilution series in the range […] with 56 nM BCL-2 for one hour during instrument start-up procedures. Protein compound mixtures were then injected over each peptide surface in parallel for 60 seconds at a flow-rate of 30 μL/min. 56 nM BCL-2 control samples were also prepared and run at regular intervals during the assay. Surface regeneration was performed at the end of each analysis cycle by two 30 second injections of 10 mM Glycine, pH 2.5, 1M Sodium Chloride, 0.05% polysorbate 20. Samples and control compound samples were run in duplicate and controls are also run at regular intervals during the assay to monitor surface and assay performance.
(§7) Data analyses are carried out using Biacore™ A100 evaluation software v1.1 to validate assay quality. Binding level report points were used relative to BCL-2 control samples to calculate % inhibition values for each compound protein mixture. […] The range of data shown in table 1 represents the high and low IC50 values obtained from multiple experiments.

[2] = molecular target: BCL-2 binding to biotinylated BAD peptide (Homo sapiens (Human), UniProt P10415); experiment: SPR (Biacore) solution inhibition assay, BCL-2 binding to BAD peptide surface; conditions: read-out: BCL2_SPR IC50 BAD
Sequence of BCL-2 binding to biotinylated BAD peptide (P10415 whole entry): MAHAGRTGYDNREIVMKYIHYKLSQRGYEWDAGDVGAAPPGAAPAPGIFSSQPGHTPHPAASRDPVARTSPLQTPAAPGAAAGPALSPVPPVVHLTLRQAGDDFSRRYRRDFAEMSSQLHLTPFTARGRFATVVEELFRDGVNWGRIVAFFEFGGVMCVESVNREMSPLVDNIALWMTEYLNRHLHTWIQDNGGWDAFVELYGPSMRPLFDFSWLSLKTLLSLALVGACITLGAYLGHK
Description: as §1, §2, §3, §4, §5, §6, §7

Sequence of BCL-2 binding to biotinylated BAK peptide (P10415 whole entry): as above

pIC50 [1]	pIC50 [2]	SMILES
6.39 to 6.44	6.29	CCCCN(CCCC)C(=O)c1nn(-c2ccc(OCC(=O)OCC)cc2C(=O)N2Cc3ccccc3C[C@H]2CO)c(C)c1Cl [Example 1, [4-(4-Chloro-3-dibutylcarbamoyl-5-methyl-pyrazol-1-yl)-3-((S)-3-hydroxymethyl-3,4-dihydro-1H-isoquinoline-2-carbonyl)-phenoxy]-acetic acid ethyl ester]
6.01 to 6.09	5.77 to 5.86	CCCCN(CCCC)C(=O)c1nn(-c2ccc(OC)cc2C(=O)N2Cc3ccccc3C[C@H]2CO)c(C)c1Cl [Example 10]
6.59 to 6.62	6.52 to 6.59	CCCCN(CCCC)C(=O)c1cc(C)n(-c2cc(O)ccc2C(=O)N2Cc3ccccc3C[C@H]2CO)n1 [Example 11]
6.52 to 6.57	6.31 to 6.35	CCCCN(CCCC)C(=O)c1cc(C)n(-c2cc(OC)ccc2C(=O)N2Cc3ccccc3C[C@H]2CO)n1 [Example 12]

The next lines start with the compound.

SMILES	pIC50 [1]	pIC50 [2]
CCCCN(CCCC)C(=O)c1nn(-c2ccc(OCC(=O)O)cc2C(=O)N2Cc3ccccc3C[C@H]2CO)c(C)c1Cl [Example 2, [4-(4-Chloro-3-dibutylcarbamoyl-5-methyl-pyrazol-1-yl)-3-((S)-3-hydroxymethyl-3,4-dihydro-1H-isoquinoline-2-carbonyl)-phenoxy]-acetic acid]	6.86 to 6.88	6.82 to 6.83
CCCCN(CCCC)C(=O)c1nn(-c2ccc(OCC(=O)Nc3ccccc3)cc2C(=O)N2Cc3ccccc3C[C@H]2CO)c(C)c1Cl [Example 3, 4-Chloro-1-[2-((S)-3-hydroxymethyl-3,4-dihydro-1H-isoquinoline-2-carbonyl)-4-phenylcarbamoylmethoxy-phenyl]-5-methyl-1H-pyrazole-3-carboxylic acid dibutylamide]	6.36 to 6.39	6.32 to 6.36
CCCCN(CCCC)C(=O)c1cc(C)n(-c2cc(OCC(=O)OCC)ccc2C(=O)N2Cc3ccccc3C[C@H]2CO)n1 [Example 4, [3-(3-Dibutylcarbamoyl-5-methyl-pyrazol-1-yl)-4-((S)-3-hydroxymethyl-3,4-dihydro-1H-isoquinoline-2-carbonyl)-phenoxy]-acetic acid ethyl ester]	6.11	5.87 to 5.93
CCCCN(CCCC)C(=O)c1cc(C)n(-c2cc(OCC(=O)O)ccc2C(=O)N2Cc3ccccc3C[C@H]2CO)n1 [Example 5, [3-(3-Dibutylcarbamoyl-5-methyl-pyrazol-1-yl)-4-((S)-3-hydroxymethyl-3,4-dihydro-1H-isoquinoline-2-carbonyl)-phenoxy]-acetic acid]	7.06 to 7.08	6.98 to 7.00
CCCCN(CCCC)C(=O)c1cc(C)n(-c2cc(OCC(=O)Nc3ccccc3)ccc2C(=O)N2Cc3ccccc3C[C@H]2CO)n1 [Example 6, 1-[2-((S)-3-Hydroxymethyl-3,4-dihydro-1H-isoquinoline-2-carbonyl)-5-phenylcarbamoylmethoxy-phenyl]-5-methyl-1H-pyrazole-3-carboxylic acid dibutylamide]	5.88 to 5.90	5.68
CCCCN(CCCC)C(=O)c1cc(C)n(-c2cc(OCC(=O)OCc3ccccc3)ccc2C(=O)N2Cc3ccccc3C[C@H]2CO)n1 [Example 7, [3-(3-Dibutylcarbamoyl-5-methyl-pyrazol-1-yl)-4-((S)-3-hydroxymethyl-3,4-dihydro-1H-isoquinoline-2-carbonyl)-phenoxy]-acetic acid benzyl ester]	5.88 to 5.90	5.81 to 5.82
CCCCN(CCCC)C(=O)c1cc(C)n(-c2cc(OCC(=O)Nc3ccccc3F)ccc2C(=O)N2Cc3ccccc3C[C@H]2CO)n1 [Example 8]	5.76 to 5.77	5.52 to 5.54
CCCCN(CCCC)C(=O)c1nn(-c2ccc(O)cc2C(=O)N2Cc3ccccc3C[C@H]2CO)c(C)c1Cl [Example 9]	6.36 to 6.39	6.20 to 6.21
